Experimental data from ChEMBL document CHEMBL1909046, “DrugMatrix in vitro pharmacology data”.

What was measured:
[1] = biological target: T1, Vasoactive intestinal polypeptide receptor 1 (Homo sapiens, UniProt P32241); type: cell membranes, Membrane; details: ht-29; further: in other assays of this panel Not Active means under 50% inhibition at 10 µM
T1 sequence (P32241 whole entry): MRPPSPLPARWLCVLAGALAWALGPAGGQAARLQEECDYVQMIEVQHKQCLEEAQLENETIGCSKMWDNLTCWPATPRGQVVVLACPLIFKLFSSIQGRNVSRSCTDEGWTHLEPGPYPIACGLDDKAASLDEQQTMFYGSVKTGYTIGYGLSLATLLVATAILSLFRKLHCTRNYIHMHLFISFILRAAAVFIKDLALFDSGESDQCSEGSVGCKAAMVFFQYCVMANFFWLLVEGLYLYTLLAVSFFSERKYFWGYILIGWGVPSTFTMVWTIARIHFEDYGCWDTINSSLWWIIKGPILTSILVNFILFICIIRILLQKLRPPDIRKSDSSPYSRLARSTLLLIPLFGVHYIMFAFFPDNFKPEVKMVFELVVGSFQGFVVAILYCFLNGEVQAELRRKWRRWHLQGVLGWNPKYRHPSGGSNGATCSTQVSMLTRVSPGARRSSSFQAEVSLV

[2] = biological target: T2, C-X-C chemokine receptor type 2 (Homo sapiens, UniProt P25025); type: cell membranes, Membrane; details: cho-k1; further: in other assays of this panel Not Active means under 50% inhibition at 10 µM
T2 sequence (P25025 whole entry): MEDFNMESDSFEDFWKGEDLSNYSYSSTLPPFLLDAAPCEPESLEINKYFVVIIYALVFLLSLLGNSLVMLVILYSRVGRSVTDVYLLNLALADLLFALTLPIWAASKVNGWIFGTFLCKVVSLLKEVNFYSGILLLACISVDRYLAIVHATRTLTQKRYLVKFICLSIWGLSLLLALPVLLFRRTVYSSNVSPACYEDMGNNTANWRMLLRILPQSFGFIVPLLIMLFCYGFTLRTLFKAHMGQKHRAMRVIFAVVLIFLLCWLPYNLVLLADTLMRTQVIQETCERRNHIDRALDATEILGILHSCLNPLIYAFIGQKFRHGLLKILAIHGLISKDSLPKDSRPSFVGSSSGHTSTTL

[3] = DRUGMATRIX: Imidazoline I2, Central radioligand binding (ligand: [3H] Idazoxan); type: cell membranes, Rattus norvegicus, Wistar, Cerebral cortex, Membrane; details: Not Active = under 50% inhibition at 10 µM
[4] = DRUGMATRIX: Platelet-Derived Growth Factor (PDGF) radioligand binding (ligand: [125I] PDGF); type: cell-based; details: nih3t3; Not Active = under 50% inhibition at 10 µM
[5] = biological target: T3, Caspase-1 (Homo sapiens, UniProt P29466); set-up: species or system Escherichia coli;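 further: Caspase-1 enzyme inhibition assay with a peptide substrate; in other assays of this panel Not Active means under 50% inhibition at 10 µM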
T3 sequence (P29466 whole entry): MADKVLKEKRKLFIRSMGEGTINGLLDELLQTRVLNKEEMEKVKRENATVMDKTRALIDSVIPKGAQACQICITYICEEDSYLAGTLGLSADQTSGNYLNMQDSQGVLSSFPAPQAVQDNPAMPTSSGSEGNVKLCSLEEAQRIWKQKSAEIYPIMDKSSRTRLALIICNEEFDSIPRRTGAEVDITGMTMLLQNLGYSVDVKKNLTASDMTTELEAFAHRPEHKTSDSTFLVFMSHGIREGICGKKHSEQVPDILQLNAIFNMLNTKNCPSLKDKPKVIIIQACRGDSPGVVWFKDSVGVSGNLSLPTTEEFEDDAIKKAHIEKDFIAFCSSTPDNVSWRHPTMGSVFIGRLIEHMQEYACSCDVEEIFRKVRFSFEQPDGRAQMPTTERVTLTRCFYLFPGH

[6] = biological target: Estrogen receptor beta (Homo sapiens, UniProt Q92731); details: sf9; further: in other assays of this panel Not Active means under 50% inhibition at 10 µM
[7] = biological target: T4, Glucocorticoid receptor (Homo sapiens, UniProt P04150); details: hela s3; further: in other assays of this panel Not Active means under 50% inhibition at 10 µM
T4 sequence (P04150 whole entry): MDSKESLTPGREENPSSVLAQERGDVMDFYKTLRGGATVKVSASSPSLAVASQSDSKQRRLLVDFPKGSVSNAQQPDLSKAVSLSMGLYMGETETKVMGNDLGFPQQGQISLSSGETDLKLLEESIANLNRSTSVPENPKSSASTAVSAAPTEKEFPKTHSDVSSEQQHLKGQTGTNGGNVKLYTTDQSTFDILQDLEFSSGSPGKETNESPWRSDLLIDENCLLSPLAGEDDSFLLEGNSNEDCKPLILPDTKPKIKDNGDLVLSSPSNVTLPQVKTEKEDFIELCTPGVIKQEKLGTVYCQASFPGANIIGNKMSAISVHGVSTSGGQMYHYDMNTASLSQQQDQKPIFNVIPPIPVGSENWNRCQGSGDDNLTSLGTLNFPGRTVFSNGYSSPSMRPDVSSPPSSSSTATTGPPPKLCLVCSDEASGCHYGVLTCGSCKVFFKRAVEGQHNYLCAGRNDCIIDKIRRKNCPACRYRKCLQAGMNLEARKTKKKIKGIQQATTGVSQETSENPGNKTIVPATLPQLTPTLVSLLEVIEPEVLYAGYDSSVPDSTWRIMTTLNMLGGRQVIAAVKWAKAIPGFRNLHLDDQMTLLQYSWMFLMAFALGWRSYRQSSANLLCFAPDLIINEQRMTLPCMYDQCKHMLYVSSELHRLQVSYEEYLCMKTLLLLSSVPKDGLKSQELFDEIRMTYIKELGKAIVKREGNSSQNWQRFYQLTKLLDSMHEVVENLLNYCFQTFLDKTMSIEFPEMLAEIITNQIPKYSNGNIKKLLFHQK

[8] = biological target: Voltage-gated inwardly rectifying potassium channel KCNH2 (Homo sapiens, UniProt Q12809); details: hek293; further: in other assays of this panel Not Active means under 50% inhibition at 10 µM
Sequence of Voltage-gated inwardly rectifying potassium channel KCNH2 (Q12809 whole entry): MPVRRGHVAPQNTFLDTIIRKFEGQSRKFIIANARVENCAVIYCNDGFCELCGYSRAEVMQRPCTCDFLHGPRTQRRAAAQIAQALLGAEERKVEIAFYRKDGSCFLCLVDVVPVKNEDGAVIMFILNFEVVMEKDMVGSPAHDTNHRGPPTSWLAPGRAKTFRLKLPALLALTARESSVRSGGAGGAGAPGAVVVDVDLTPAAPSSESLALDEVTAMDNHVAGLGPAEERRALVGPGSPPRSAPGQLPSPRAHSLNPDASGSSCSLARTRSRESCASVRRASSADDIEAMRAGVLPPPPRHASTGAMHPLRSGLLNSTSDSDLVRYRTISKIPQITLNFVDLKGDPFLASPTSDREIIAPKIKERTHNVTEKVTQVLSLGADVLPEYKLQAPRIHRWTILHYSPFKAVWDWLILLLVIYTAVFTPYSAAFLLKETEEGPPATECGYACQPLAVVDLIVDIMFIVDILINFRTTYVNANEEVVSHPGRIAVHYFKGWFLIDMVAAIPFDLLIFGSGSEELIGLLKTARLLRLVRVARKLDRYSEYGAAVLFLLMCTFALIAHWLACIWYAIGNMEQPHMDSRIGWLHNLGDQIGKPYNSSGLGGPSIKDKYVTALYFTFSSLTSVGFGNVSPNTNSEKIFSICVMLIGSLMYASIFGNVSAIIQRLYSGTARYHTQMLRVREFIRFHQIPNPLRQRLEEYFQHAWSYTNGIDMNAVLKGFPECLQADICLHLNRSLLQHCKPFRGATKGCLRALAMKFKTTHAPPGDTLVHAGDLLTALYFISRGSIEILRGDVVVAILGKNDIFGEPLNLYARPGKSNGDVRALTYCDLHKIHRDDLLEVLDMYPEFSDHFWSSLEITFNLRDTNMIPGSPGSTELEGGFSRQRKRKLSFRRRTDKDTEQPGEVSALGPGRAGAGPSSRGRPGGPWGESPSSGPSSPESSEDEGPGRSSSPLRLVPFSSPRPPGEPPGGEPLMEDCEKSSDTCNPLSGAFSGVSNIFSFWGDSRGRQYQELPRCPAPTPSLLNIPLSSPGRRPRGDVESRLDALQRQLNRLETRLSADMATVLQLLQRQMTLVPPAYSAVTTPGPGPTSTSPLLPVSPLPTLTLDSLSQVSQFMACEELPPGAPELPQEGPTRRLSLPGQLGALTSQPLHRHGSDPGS

Sequence of Estrogen receptor beta (Q92731 whole entry): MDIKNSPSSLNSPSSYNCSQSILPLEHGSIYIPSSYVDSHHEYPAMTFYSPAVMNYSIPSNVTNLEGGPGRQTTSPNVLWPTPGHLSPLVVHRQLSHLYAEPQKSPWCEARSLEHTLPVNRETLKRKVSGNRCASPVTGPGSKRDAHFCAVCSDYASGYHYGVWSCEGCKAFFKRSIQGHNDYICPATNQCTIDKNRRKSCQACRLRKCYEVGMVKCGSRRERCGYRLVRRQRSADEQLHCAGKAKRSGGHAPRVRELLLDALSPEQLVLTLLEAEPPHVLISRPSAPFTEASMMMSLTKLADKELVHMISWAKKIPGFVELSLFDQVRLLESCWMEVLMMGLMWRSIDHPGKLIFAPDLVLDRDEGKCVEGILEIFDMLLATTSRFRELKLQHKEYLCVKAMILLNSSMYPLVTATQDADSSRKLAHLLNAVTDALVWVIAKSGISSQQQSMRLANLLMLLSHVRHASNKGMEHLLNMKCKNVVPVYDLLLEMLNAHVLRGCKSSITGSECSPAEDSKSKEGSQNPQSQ

Compound | IC50 [1] | IC50 [2] | IC50 [3] | Ki [3] | IC50 [4] | Ki [4] | IC50 [5] | IC50 [6] | IC50 [7] | IC50 [8] | Ki [8] | IC50 ([3]; read-out: IC50) [nM] | Ki ([3]; read-out: Ki) [nM]
Cc1c(C)c2c(c(C)c1O)CCC(C)(CN1CCN(c3cc(N4CCCC4)nc(N4CCCC4)n3)CC1)O2 (configuration not stated) | Not Active | Not Active | Not Active | Not Active | Not Active | Not Active | Not Active | Not Active | Not Active | Not Active | Not Active |  | 
CC(C)Cc1ccc([C@@H](C)C(=O)O)cc1 [(R)-IBUPROPHEN] | Not Active | Not Active | Not Active | Not Active | Not Active | Not Active | Not Active | Not Active | Not Active | Not Active | Not Active |  | 
CCN(CC)CCOc1ccc(/C(=C(/Cl)c2ccccc2)c2ccccc2)cc1 [ENCLOMIPHENE] | Not Active | Not Active |  |  |  |  | Not Active | Not Active | Not Active | Not Active | Not Active |  | 
CC(C)NCC(O)c1ccc(O)c(O)c1 (configuration not stated) [ISOPROTERENOL] | Not Active | Not Active | Not Active | Not Active | Not Active | Not Active | Not Active | Not Active | Not Active | Not Active | Not Active |  | 
CNC1(c2ccccc2Cl)CCCCC1=O (configuration not stated) [KETAMINE] | Not Active | Not Active | Not Active | Not Active | Not Active | Not Active | Not Active | Not Active | Not Active | Not Active | Not Active |  | 
N#Cc1ccc(C(c2ccc(C#N)cc2)n2cncn2)cc1 [LETROZOLE] | Not Active | Not Active | Not Active | Not Active | Not Active | Not Active | Not Active | Not Active | Not Active | Not Active | Not Active |  | 
CCN1CCC[C@H]1CNC(=O)c1cc(S(N)(=O)=O)ccc1OC [LEVOSULPIRIDE] | Not Active | Not Active | Not Active | Not Active | Not Active | Not Active | Not Active | Not Active | Not Active | Not Active | Not Active |  | 
O=C1Nc2ccc(Cl)cc2C(c2ccccc2Cl)=NC1O (configuration not stated) [LORAZEPAM] | Not Active | Not Active | Not Active | Not Active | Not Active | Not Active | Not Active | Not Active | Not Active | Not Active | Not Active |  | 
COc1c2occc2cc2ccc(=O)oc12 [METHOXSALEN] | Not Active | Not Active | Not Active | Not Active | Not Active | Not Active | Not Active | Not Active | Not Active | Not Active | Not Active |  | 
Nc1cc(N2CCCCC2)nc(N)[n+]1[O-] [MINOXIDIL] | Not Active | Not Active | Not Active | Not Active | Not Active | Not Active | Not Active | Not Active | Not Active | Not Active | Not Active |  | 
CO[C@H]1/C=C/O[C@@]2(C)Oc3c(C)c(O)c4c(O)c(c(/C=N/N5CCN(C6CCCC6)CC5)c(O)c4c3C2=O)NC(=O)/C(C)=C\C=C\[C@H](C)[C@H](O)[C@@H](C)[C@@H](O)[C@@H](C)[C@H](OC(C)=O)[C@@H]1C [RIFAPENTINE] | Not Active | Not Active | Not Active | Not Active | Not Active | Not Active | Not Active | Not Active | Not Active | Not Active | Not Active |  | 
CCCCOc1cc(CC2CNC(=O)N2)ccc1OC (configuration not stated) [RO-201724] | Not Active | Not Active | Not Active | Not Active | Not Active | Not Active | Not Active | Not Active | Not Active | Not Active | Not Active |  | 
CC(C)NCC(O)c1ccc(NS(C)(=O)=O)cc1 (configuration not stated) [SOTALOL] | Not Active | Not Active | Not Active | Not Active | Not Active | Not Active | Not Active | Not Active | Not Active | Not Active | Not Active |  | 
NC(=O)N1C(=O)/C(=C(\O)c2cccs2)c2cc(Cl)ccc21 [TENIDAP] | Not Active | Not Active | Not Active | Not Active | Not Active | Not Active | Not Active | Not Active | Not Active | Not Active | Not Active |  | 
COc1cc2nc(N3CCN(C(=O)C4CCCO4)CC3)nc(N)c2cc1OC (configuration not stated) [TERAZOSIN] | Not Active | Not Active |  |  | Not Active | Not Active | Not Active | Not Active | Not Active |  |  | 1270 | 846
CN(C/C=C/C#CC(C)(C)C)Cc1cccc2ccccc12 [TERBINAFINE] | Not Active | Not Active | Not Active | Not Active | Not Active | Not Active | Not Active | Not Active | Not Active | Not Active | Not Active |  | 
CCN(CC)CCNC(=O)c1cc(S(C)(=O)=O)ccc1OC [TIAPRIDE] | Not Active | Not Active | Not Active | Not Active | Not Active | Not Active | Not Active | Not Active | Not Active | Not Active | Not Active |  | 
NC1CCN(c2nc3c(cc2F)c(=O)c(C(=O)O)cn3-c2ccc(F)cc2F)C1 (configuration not stated) [TOSUFLOXACIN] | Not Active | Not Active | Not Active | Not Active | Not Active | Not Active | Not Active | Not Active | Not Active | Not Active | Not Active |  | 
